“Also recorded” adds a separate entry of the source. Where two headings read alike, the source gives them in different places.
How the values were obtained:
[1] = biological target: T1, 12-LO (Homo sapiens, UniProt P18054); test: 12-HETE formation in platelets; settings: 20 µM AA, 2.5 µM A23187, n = 3–6
T1 sequence (P18054 1-663): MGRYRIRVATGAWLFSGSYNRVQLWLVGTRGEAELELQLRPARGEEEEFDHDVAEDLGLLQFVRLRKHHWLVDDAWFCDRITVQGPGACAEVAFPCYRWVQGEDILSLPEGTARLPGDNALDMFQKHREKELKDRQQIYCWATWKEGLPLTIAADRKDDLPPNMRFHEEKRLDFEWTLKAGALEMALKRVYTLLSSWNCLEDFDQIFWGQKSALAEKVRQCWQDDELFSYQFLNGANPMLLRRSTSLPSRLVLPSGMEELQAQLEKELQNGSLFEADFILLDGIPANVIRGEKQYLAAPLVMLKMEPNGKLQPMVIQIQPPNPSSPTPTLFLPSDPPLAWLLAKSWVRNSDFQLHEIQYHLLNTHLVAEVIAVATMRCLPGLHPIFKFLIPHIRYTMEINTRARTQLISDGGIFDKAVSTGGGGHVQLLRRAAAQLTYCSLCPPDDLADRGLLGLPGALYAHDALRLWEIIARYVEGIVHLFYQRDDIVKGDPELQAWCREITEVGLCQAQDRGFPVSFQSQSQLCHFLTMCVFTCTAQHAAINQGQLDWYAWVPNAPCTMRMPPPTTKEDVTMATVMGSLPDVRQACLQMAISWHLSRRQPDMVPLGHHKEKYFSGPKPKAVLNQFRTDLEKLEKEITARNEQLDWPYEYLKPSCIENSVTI

[2] = biological target: T2, 5-LO (Homo sapiens, UniProt P09917); test: 5-LO product formation in intact PMNL
T2 sequence (P09917 1-674): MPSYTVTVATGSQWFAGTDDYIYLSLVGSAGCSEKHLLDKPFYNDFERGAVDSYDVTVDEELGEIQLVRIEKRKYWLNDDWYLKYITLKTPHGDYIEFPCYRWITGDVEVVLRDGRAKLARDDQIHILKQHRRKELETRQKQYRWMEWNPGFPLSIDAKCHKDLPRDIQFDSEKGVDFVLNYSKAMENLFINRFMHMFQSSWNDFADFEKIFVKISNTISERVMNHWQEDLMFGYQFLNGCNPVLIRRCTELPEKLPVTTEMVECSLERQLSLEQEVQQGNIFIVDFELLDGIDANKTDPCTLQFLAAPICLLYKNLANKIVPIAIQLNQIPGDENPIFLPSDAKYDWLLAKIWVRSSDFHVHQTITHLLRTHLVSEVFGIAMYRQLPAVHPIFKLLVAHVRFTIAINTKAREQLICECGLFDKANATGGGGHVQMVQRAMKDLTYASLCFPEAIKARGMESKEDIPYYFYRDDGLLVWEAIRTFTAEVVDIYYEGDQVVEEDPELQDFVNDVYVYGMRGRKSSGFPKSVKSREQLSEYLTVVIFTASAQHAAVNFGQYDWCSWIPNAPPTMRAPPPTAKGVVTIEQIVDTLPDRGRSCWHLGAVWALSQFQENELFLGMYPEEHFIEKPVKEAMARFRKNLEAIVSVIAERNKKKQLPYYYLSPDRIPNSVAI

[3] = test system: 15-LO; test: 15-HETE formation in intact PMNL; settings: for IC50: read-out: IC50 for inhibition of 15-HETE formation, PMNL
[4] = test system: U2OS cells; settings: human, 10 µM
[5] = biological target: T3, r5-LO_WT (Homo sapiens, UniProt P09917); test: Covalent inhibitor binding by mass spectrometry, r5-LO_WT; settings: 100 µM compound; for inhibitor adducts to r5-LO_WT detected by mass spectrometry: 20 µM protein, at least 1 h RT; for mass shift of inhibitor adduct: 20 µM r5-LO_WT
T3 construct: made in house; host or cells: E. coli BL21 (DE3)
T3 sequence (P09917 1-674): T2 sequence (P09917 1-674)

[6] = biological target: T4, r5-LO_4C (Homo sapiens, UniProt P09917, C160S/C301S/C417S/C419S); test: Covalent inhibitor binding by mass spectrometry, r5-LO_4C; settings: 20 µM protein, 100 µM compound, at least 1 h RT
T4 construct: made in house; host or cells: E. coli BL21 (DE3)
T4 sequence (P09917 2-674 C160S/C301S/C417S/C419S limits assumed): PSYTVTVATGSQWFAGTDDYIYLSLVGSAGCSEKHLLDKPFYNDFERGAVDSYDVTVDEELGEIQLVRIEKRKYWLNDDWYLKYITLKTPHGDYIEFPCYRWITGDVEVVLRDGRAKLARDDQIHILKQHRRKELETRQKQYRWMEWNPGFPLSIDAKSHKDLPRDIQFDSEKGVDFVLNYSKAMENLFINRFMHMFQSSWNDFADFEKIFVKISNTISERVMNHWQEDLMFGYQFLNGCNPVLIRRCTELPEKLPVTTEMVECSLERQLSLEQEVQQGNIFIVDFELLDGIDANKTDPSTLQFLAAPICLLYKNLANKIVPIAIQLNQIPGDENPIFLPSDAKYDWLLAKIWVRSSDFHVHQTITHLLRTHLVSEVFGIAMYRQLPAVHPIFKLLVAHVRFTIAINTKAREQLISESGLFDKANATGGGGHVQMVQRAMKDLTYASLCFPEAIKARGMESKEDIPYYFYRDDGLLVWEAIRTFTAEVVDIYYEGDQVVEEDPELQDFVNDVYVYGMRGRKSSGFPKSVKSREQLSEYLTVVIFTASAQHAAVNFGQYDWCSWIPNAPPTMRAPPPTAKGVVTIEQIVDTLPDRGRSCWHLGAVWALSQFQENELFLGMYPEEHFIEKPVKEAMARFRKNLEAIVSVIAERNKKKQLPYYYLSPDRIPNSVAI
Method: r5-LO_WT or r5-LO_4C protein was diluted to 20 µM in gel filtration buffer; 100 µM of compound was added and incubated for a minimum time of 1 h at RT before 10 µL was injected onto a 1260 Infinity HPLC (Agilent, Santa Clara, USA) using a C3 column with a flow rate of 0.4 mL/min as published before. The HPLC was coupled with a 6230 electrospray ionization TOF LC/MS detector (Agilent, Santa Clara, CA, USA). Data were acquired using the Agilent MassHunter Acquisition software and processed with the Agilent Mass Hunter BioConfirm software (B.08.00). Peak intensities were calculated and normalized to the highest count of each data set with GraphPad Prism version 7.05 (GraphPad Software, Boston, MA, USA).
Fig. 3 Mass spectra of r5-LO_WT or r5-LO_4C incubated with inhibitors (blue or red line). 20 µM r5-LO_WT (left) or r5-LO_4C (right) was incubated with 100 µM degrasyn (A), AG556 (B), tyrphostin A9 (C), AG879 (D), or CAPE (E) at RT for at least 1 h before analysis. Measurement was performed using an Agilent 1260 Infinity HPLC with an Agilent 6230 TOF LC/MS detector. Obtained data were processed using Mass Hunter BioConfirm (B.08.00), and resulted counts were normalized to the highest peak of the spectrum

[7] = biological target: T2, 5-LO; test: 5-LO activity in PMNL homogenates; assay type: biochemical; parameters: endogenous in cells; host or cells: human PMNL (polymorphonuclear leukocytes); settings: sonicated PMNL, 20 µM AA
Method: Samples were kept on ice, and 1 mM ATP or 1 mM ATP/1 mM GSH was added. The inhibitors were preincubated with the cell homogenate on ice for 15 min before heating the samples at 37 °C for 30 s. […] Solid phase extraction and UPLC analysis were performed as described above.

[8] = test system: U2OS cells; test: Multiplex live-cell high-content assay; settings: for normalized healthy cell count: up to 48 h, normalized to DMSO
[9] = intact PMNL, 20 µM AA, 2.5 µM A23187, (95% CI), n = 3–6
[10] = IC50 for inhibition of 5-LO product formation, PMNL, intact PMNL, 20 µM AA, 2.5 µM A23187, (95% CI), n = 3–6

| Compound | IC50 for inhibition of 12-HETE formation, platelets [1] | IC50 [2] [µM] | IC50 for inhibition of 15-HETE formation, PMNL [3, 9] | IC50 [3, 9] [µM] | also measured |
| --- | --- | --- | --- | --- | --- |
| N#C/C(=C\c1ccc(O)c(O)c1)C(=O)NCCCCc1ccccc1 [AG556] | no inhibition | 0.34 |  | 5.1 | normalized healthy cell count [4]: around 75%; inhibitor adducts to r5-LO_WT detected by mass spectrometry [5]: covalently bound to up to four cysteines; also recorded: four peaks; mass shift of inhibitor adduct [5]: 336 Da; inhibitor adducts to r5-LO_4C detected by mass spectrometry [6]: only one adduct |
| CC(C)(C)c1cc(C=C(C#N)C#N)cc(Br)c1O [AG1024] |  | 3.1 | no inhibition |  |  |
| O=C(/C=C/c1ccc(O)c(O)c1)OCCc1ccccc1 [CAPE, caffeic acid phenethyl ester] | no inhibition | 0.23 |  | 10 | normalized healthy cell count [4]: around 75%; inhibitor adducts to r5-LO_WT detected by mass spectrometry [5]: did not detect mass shifts |
| CCC[C@H](NC(=O)/C(C#N)=C/c1cccc(Br)n1)c1ccccc1 [Degrasyn] | no inhibition | 0.62 | moderate inhibition | 7.9 | IC50 ([7]; with 1 mM GSH, read-out: IC50 5-LO, PMNL homogenates + GSH): 4.2 µM; IC50 ([7]; without GSH, read-out: IC50 5-LO, PMNL homogenates): 0.89 µM; normalized healthy cell count [4]: below 50%; increase of mitochondrial mass ([4]; 48 h): more than 50%; inhibitor adducts to r5-LO_WT detected by mass spectrometry [5]: covalently bound to up to four cysteines; also recorded: four peaks; mass shift of inhibitor adduct [5]: 384 Da; phenotypic properties (tubulin, mitochondrial mass, membrane permeability, cell morphology) ([8]; 10 µM, 48 h): additional effects on microtubules and on membrane integrity; inhibitor adducts to r5-LO_4C detected by mass spectrometry [6]: only one adduct |
| COc1ccc(/C=C(/C#N)c2cccnc2)cc1OC [RG13022] |  | > 30 | no inhibition |  |  |
| N#C/C(=C/c1cc(Cl)cc(Cl)c1)c1cccnc1 [RG14620] |  | 5.9 | no inhibition |  |  |
| CC(C)c1cc(/C=C(\C#N)C(=O)NCCCc2ccccc2)cc(C(C)C)c1O [SU1498] |  | 0.76 | did not show inhibition; also recorded: no inhibition |  |  |
| CN[C@@H]1C[C@H]2O[C@@](C)([C@@H]1OC)n1c3ccccc3c3c4c(c5c6ccccc6n2c5c31)C(=O)NC4 [Staurosporine] |  |  |  |  | normalized healthy cell count ([8]; 10 µM inhibitor): about 25% |
| N#CC(C#N)=Cc1ccc(O)cc1 [Tyrphostin 8] |  |  | no inhibition |  | IC50 for inhibition of 5-LO product formation, PMNL [2, 9]: no inhibition; IC50 for inhibition of 5-LO product formation, PMNL ([2]; intact PMNL, 20 µM AA, 2.5 µM A23187, (95% CI), n = 3–6, listed as tyrphostin 8): failed to inhibit |
| CC(C)(C)c1cc(C=C(C#N)C#N)cc(C(C)(C)C)c1O [Tyrphostin A9] | no inhibition | 1.1 | no inhibition |  | inhibitor adducts to r5-LO_WT detected by mass spectrometry [5]: did not detect mass shifts; normalized healthy cell count ([8]; 1 µM inhibitor): 57%; normalized healthy cell count ([8]; 1 µM inhibitor, listed as tyrphostin A9): about 50%; normalized healthy cell count ([8]; 10 µM inhibitor): below 50% |
| C[C@H](NC(=O)/C(C#N)=C/c1cccc(Br)n1)c1ccccc1 [WP1066] |  |  | moderate inhibition | 18 | IC50 [2, 10]: 0.93 µM |
| AG825 |  |  |  |  | IC50 for inhibition of 15-HETE formation, PMNL [3]: no inhibition |

Second part, led by results:

| IC50 for inhibition of 12-HETE formation, platelets [1] | IC50 [2] [µM] | IC50 for inhibition of 15-HETE formation, PMNL [3, 9] | IC50 [3, 9] [µM] | Compound | also measured |
| --- | --- | --- | --- | --- | --- |
| no inhibition | 7.2 | no inhibition |  | N#C/C(=C\c1ccc(O)c(O)c1)C(N)=O [(E)-AG99] |  |
| no inhibition | 5.4 | no inhibition |  | N#CC(C#N)=Cc1ccc(O)c(O)c1 [AG18] |  |
|  |  | no inhibition |  | N#C/C(=C\c1ccc(O)c(O)c1)C(=O)O [AG30] | IC50 for inhibition of 5-LO product formation, PMNL [2, 9]: no inhibition |
| no inhibition | 8 | no inhibition |  | N#CC(C#N)=Cc1cc(O)c(O)c(O)c1 [AG82] |  |
|  |  | no inhibition |  | N#CC(C#N)=Cc1ccc([N+](=O)[O-])c(O)c1 [AG126] | IC50 for inhibition of 5-LO product formation, PMNL [2, 9]: no inhibition |
| no inhibition |  |  | > 25 | N#C/C(=C\c1ccc(O)c(O)c1)C(=O)NCc1ccccc1 [AG490] | IC50 [2, 10]: 1.1 µM |
| no inhibition | 0.86 |  | 22 | N#C/C(=C\c1ccc(O)c(O)c1)C(=O)Nc1ccccc1 [AG494] |  |
